Measured values reported in ChEMBL document CHEMBL1201862, “PubChem BioAssay data set” (2004).
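Dose response: 5 concentrations. Exposure: 48 h. Format: 96-well plates. Endpoint: linear interpolation; highest concentration if not reached. GI50 marks 50% less growth.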 Calls of active or inactive are those of the source. Rule as the data show it: active = GI50 up to about 1.1 µM and inactive = higher.

Experiments:
Assay in all cases: growth of human tumour cells (NCI), 48 h
COLO 205 = test system: COLO 205
HCT-116 = test system: HCT-116
HCT-15 = test system: HCT-15
HL-60 = test system: HL-60
K562 = test system: K562
MOLT-4 = test system: MOLT-4
NCI-H460 = test system: NCI-H460
NCI-H522 = test system: NCI-H522
OVCAR-4 = test system: OVCAR-4
RXF 393 = test system: RXF 393
SF-268 = test system: SF-268
SF-295 = test system: SF-295
SK-MEL-2 = test system: SK-MEL-2
SK-OV-3 = test system: SK-OV-3
SNB-19 = test system: SNB-19
SNB-75 = test system: SNB-75
SR = test system: SR
TK-10 = test system: TK-10
UACC-257 = test system: UACC-257
UACC-62 = test system: UACC-62

Row | SMILES | GI50 (COLO 205) | GI50 (HCT-116) | GI50 (HCT-15) [µM] | GI50 (HL-60) | GI50 (K562) | GI50 (MOLT-4) | GI50 (NCI-H460) | GI50 (NCI-H522) | GI50 (OVCAR-4) | GI50 (RXF 393) | GI50 (SF-268) | GI50 (SF-295) | GI50 (SK-MEL-2) | GI50 (SK-OV-3) | GI50 (SNB-19) | GI50 (SNB-75) | GI50 (SR) | GI50 (TK-10) | GI50 (UACC-257) | GI50 (UACC-62)
1 | c1ccc2c(c1)N=C(c1cccc3ccccc13)CC(c1cccc3ccccc13)S2 (stereo not given) | 12.9 µM (inactive) | 3.19 µM (inactive) | 4.26 | 0.467 µM (active) | 2.49 µM (inactive) | 2.24 µM (inactive) | 3.8 µM (inactive) | 2.54 µM (inactive) | 3.68 µM (inactive) | 3.48 µM (inactive) | 4.42 µM (inactive) | 9.77 µM (inactive) | 14.9 µM (inactive) | 10.3 µM (inactive) | 4.33 µM (inactive) | 5.83 µM (inactive) | 2.07 µM (inactive) | 12.2 µM (inactive) | 14.7 µM (inactive) | 5.21 µM (inactive)
2 | CCC(C)OC(=O)C1C2CCC(O2)C1C(=O)O (stereo not given) | > 44.8 µM (inactive) | > 40.6 µM (inactive) | > 41.1 | > 100 µM (inactive) | > 100 µM (inactive) | > 87.1 µM (inactive) | 24.7 µM (inactive) | > 100 µM (inactive) | > 100 µM (inactive) | > 41.5 µM (inactive) | > 51.2 µM (inactive) | > 100 µM (inactive) | > 100 µM (inactive) | > 100 µM (inactive) | > 100 µM (inactive) | > 100 µM (inactive) | 19.2 µM (inactive) | > 100 µM (inactive) | > 70.5 µM (inactive) | > 100 µM (inactive)
3 | C[N+](C)(C)CCCCCc1c2nc(c(CCCCC[N+](C)(C)C)c3ccc([nH]3)c(CCCCC[N+](C)(C)C)c3nc(c(CCCCC[N+](C)(C)C)c4ccc1[nH]4)C=C3)C=C2 | > 100 µM (inactive) | > 100 µM (inactive) | > 100 | > 100 µM (inactive) | > 100 µM (inactive) | > 100 µM (inactive) | 67.3 µM (inactive) | > 100 µM (inactive) | > 100 µM (inactive) | 2.77 µM (inactive) | > 100 µM (inactive) | > 100 µM (inactive) | > 100 µM (inactive) | > 100 µM (inactive) | > 100 µM (inactive) | > 100 µM (inactive) | > 100 µM (inactive) | 11.3 µM (inactive) | > 100 µM (inactive) | > 100 µM (inactive)
